One may read the EC50 as the concentration giving half of the maximal effect.

Activity calls are given as the source filed them.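 How the source made its calls: active means EC50 below 100 µM for activating human gut alkaline phosphatase; inactive means the rest.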 Some results are limits rather than exact numbers.

For this assay, the target named is Intestinal-type alkaline phosphatase (Homo sapiens) (UniProt P09923). Briefly: potency of intestinal alkaline phosphatase activation – biochemical, luminescence, SAR follow-up (AID 493132). The conditions noted are these: purified IAP, CDP-Star luminescence, 30 min.
Chain of Intestinal-type alkaline phosphatase (Homo sapiens) (P09923 whole entry, looked up): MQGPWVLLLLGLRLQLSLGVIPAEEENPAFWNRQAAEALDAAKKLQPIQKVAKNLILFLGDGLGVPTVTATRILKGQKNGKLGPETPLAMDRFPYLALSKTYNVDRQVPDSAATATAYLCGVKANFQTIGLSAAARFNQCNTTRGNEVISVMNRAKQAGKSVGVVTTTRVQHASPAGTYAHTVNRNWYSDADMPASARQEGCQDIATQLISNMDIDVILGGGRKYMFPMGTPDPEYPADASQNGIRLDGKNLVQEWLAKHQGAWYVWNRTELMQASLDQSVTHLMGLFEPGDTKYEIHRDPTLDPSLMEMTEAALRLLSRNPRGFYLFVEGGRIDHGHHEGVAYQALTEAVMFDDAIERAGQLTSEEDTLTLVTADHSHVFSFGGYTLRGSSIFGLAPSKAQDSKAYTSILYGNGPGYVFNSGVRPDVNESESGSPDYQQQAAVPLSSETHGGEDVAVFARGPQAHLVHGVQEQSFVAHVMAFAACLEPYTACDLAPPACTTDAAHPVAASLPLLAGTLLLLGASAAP
For `O=C(NNC(=S)NC(=O)c1ccccc1[N+](=O)[O-])c1ccccc1O`, the concentration giving a half-maximal response (EC50) was 15.3 µM.

In the case of `COc1ccc(-c2csc(Nc3cccc4ccccc34)n2)cc1F`, the EC50 is > 100 µM (inactive). Consider `O=C(N/N=C/c1ccccc1O)c1cc(C2CC2)[nH]n1`, for which the half-maximal effective concentration (EC50) is 10.2 µM.

With `O=C(N/N=C/c1c(O)ccc2ccccc12)C(=O)N/N=C/c1c(O)ccc2ccccc12`, the EC50 was > 100 µM (inactive).

In the case of `COc1cc(OC)c(OC)cc1/C=N/NC(=O)C(=O)N/N=C/c1cc(OC)c(OC)cc1OC`, the EC50 was > 100 µM (inactive). In the case of `O=C(N/N=C/c1ccc(O)cc1)C(=O)N/N=C/c1ccc(O)cc1`, the EC50 is 43.9 µM. Take `N#CCOc1ccccc1/C=N/NC(=O)C(=O)N/N=C/c1ccccc1OCC#N`: the concentration giving a half-maximal response (EC50) is 86.5 µM. The figure for `CCCCOc1ccc(/C=N/NC(=O)C(=O)N/N=C/c2ccc(OCCCC)cc2)cc1` is > 100 µM (inactive); for `Cc1cc(C(=O)N/N=C\c2cc(C(C)(C)C)ccc2O)n[nH]1` it is 7.65 µM.

Turning to `C/C(=N\NC(=O)c1[nH]nc2c1CCc1ccccc1-2)c1ccccc1O`, the 50% effective concentration (EC50) was 8.62 µM. On to `O=C(N/N=C/c1ccccc1O)c1n[nH]c2c1CCC2`, for which the EC50 is 8.25 µM.

Take `CC(=NNC(=O)C(=O)NN=C(C)c1cccc(O)c1)c1cccc(O)c1`: the EC50 was 84.6 µM. In the case of `COc1cccc(C=NNC(=O)C2=NNC(=O)C2C)c1O` (stereo unspecified) it was 8.22 µM. As to `COc1cccc(C=NNC(=O)C(=O)NN=Cc2cccc(OC)c2OC)c1OC`, the EC50 was 30.4 µM. For `O=C(NN=Cc1ccc(O)cc1O)C(=O)NN=Cc1ccc(O)cc1O`, the EC50 is 6.5 µM. In the case of `O=C(N/N=C/c1ccc2c(c1)OCO2)C(=O)N/N=C/c1ccc2c(c1)OCO2` it was > 100 µM (inactive). Turning to `CC(C)C(=O)NC(=S)Nc1ccccc1C(=O)Nc1ccccc1`, the half-maximal effective concentration (EC50) is 8.68 µM. The figure for `O=C(N/N=C/c1cc(Br)ccc1O)C(=O)N/N=C/c1cc(Br)ccc1O` is 11 µM. In the case of `O=C(NN=Cc1c(O)ccc2ccccc12)c1[nH]ncc1Br` it was 9.64 µM; in that of `Cc1ccc(-c2cc(C(=O)NN=Cc3ccccc3O)n[nH]2)o1`, 6.19 µM; in that of `CCN(CC)c1ccc(/C=N/NC(=O)C(=O)N/N=C/c2ccc(N(CC)CC)cc2O)c(O)c1`, > 100 µM (inactive). As for `COc1cc(/C=N/NC(=O)C(=O)N/N=C/c2ccc(O)c(OC)c2)ccc1O`, the 50% effective concentration (EC50) was 27.9 µM. The figure for `COc1cccc(C=NNC(=O)c2cc(-c3cccn3C)n[nH]2)c1O` is 8.6 µM. With `CC(C)Oc1ccccc1/C=N/NC(=O)C(=O)N/N=C/c1ccccc1OC(C)C`, the concentration giving a half-maximal response (EC50) is 36.4 µM. For `O=C(NN=Cc1ccccc1)C(=O)NN=Cc1ccccc1`, the concentration giving a half-maximal response (EC50) is 30.7 µM. In the case of `COc1cc(/C=N/NC(=O)C(=O)N/N=C/c2cc(OC)c(OC)c(OC)c2)cc(OC)c1OC` it was > 100 µM (inactive); in that of `O=C(CCN1C(=O)/C(=C/c2ccccc2Cl)SC1=S)NNC(=O)c1ccccc1O`, 25.5 µM; in that of `COc1ccc(/C=N/NC(=O)C(=O)N/N=C/c2ccc(OC)c(OC)c2)cc1OC`, > 100 µM (inactive). In the case of `O=C(N/N=C/c1ccccc1C(=O)O)C(=O)N/N=C/c1ccccc1C(=O)O` it was 39.3 µM; in that of `O=C(N/N=C/c1c(O)ccc2ccccc12)c1cc(-c2cccs2)[nH]n1`, 11.1 µM; in that of `CCOc1cccc(C=NNC(=O)c2cc(C3CC3)[nH]n2)c1O`, 7.63 µM.

Regarding `O=C1Nc2ccc(Br)cc2C12NNc1ccccc1O2` (stereo unspecified), the half-maximal effective concentration (EC50) is 0.689 µM. As for `CCOc1cccc(C=NNC(=O)c2cc(-c3cccn3C)n[nH]2)c1O`, the EC50 is 12.5 µM. With `O=C(N/N=C\c1ccc2c(c1)OCO2)C(=O)N/N=C/c1ccc2c(c1)OCO2`, the EC50 is > 100 µM (inactive). For `COC(=O)c1ccc(/C=N/NC(=O)C(=O)N/N=C/c2ccc(C(=O)OC)cc2)cc1`, the EC50 was > 100 µM (inactive). With `COc1cccc(C=NNC(=O)c2[nH]nc3c2CCc2ccccc2-3)c1O`, the concentration for a half-maximal effect (EC50) is 9.65 µM. For the compound `Cc1cc(C(=O)NN=Cc2cc(Cl)cc([N+](=O)[O-])c2O)n[nH]1`, the EC50 is 13.6 µM. Turning to `COc1ccc(-c2cc(C(=O)NN=Cc3c(O)ccc4ccccc34)[nH]n2)cc1`, the EC50 is 19.6 µM. As for `CC(=O)Nc1cccc(C(=O)NNC(=O)c2n[nH]c(=O)c3ccccc23)c1`, the concentration for a half-maximal effect (EC50) is 9.05 µM.

Turning to `OC(c1nc2ccc(F)cc2[nH]1)C(O)c1nc2ccc(F)cc2[nH]1` (stereo unspecified), the EC50 is 6.78 µM. On to `COc1cc(OC)cc(C(=O)NNC(=O)c2nn(C)c(=O)c3ccccc23)c1`, for which the half-maximal effective concentration (EC50) is 11.8 µM. As for `COc1cc(/C=N\NC(=O)C(=O)N/N=C/c2cc(OC)c(O)c(OC)c2)cc(OC)c1O`, the EC50 was 19.2 µM. Take `CC1C(=O)NN=C1C(=O)NN=Cc1ccc(O)cc1O` (stereo unspecified): the concentration giving a half-maximal response (EC50) was 10.7 µM. As for `O=C(N/N=C\c1cccc(O)c1)C(=O)N/N=C/c1cccc(O)c1`, the EC50 is 45 µM. In the case of `Cn1cccc1-c1cc(C(=O)NN=Cc2cc(Br)ccc2O)[nH]n1`, the 50% effective concentration (EC50) was 9.91 µM. The figure for `C/C(=N\NC(=O)c1cc(C)[nH]n1)c1ccc2ccccc2c1O` is 6.59 µM.

Regarding `Cc1ccc(O)c(C=NNC(=O)c2[nH]ncc2Br)c1`, the EC50 is 18.9 µM. `O=C(NC(=S)NNC(=O)c1ccccc1O)c1ccc(F)cc1`: the concentration for a half-maximal effect (EC50) was 9.41 µM.

Take `CN(C)c1ccc(/C=N/NC(=O)C(=O)N/N=C/c2ccc(N(C)C)cc2)cc1`: the EC50 was > 100 µM (inactive). Regarding `CCOc1cc(/C=N/NC(=O)C(=O)N/N=C/c2ccc(O)c(OCC)c2)ccc1O`, the EC50 was > 100 µM (inactive). In the case of `CC(=O)Nc1ccc(/C=N/NC(=O)C(=O)N/N=C/c2ccc(NC(C)=O)cc2)cc1` it was > 100 µM (inactive); in that of `COc1cccc(C=NNC(=O)C(=O)NN=Cc2cccc(OC)c2O)c1O`, 9.12 µM; in that of `COc1ccc(OC)c(/C=N/NC(=O)C(=O)N/N=C/c2cc(OC)ccc2OC)c1`, 90.7 µM. The figure for `O=C(N/N=C/c1cc(Br)ccc1O)c1cc(C2CC2)[nH]n1` is 11.3 µM; for `Cc1cc(C(=O)N/N=C/c2cc(Br)ccc2O)n[nH]1` it is 9.33 µM. As for `Cc1cc(C(=O)NN=Cc2cccc([N+](=O)[O-])c2O)n[nH]1`, the concentration giving a half-maximal response (EC50) was 14.6 µM.

(Values after PubChem BioAssay AID493132 (Sanford-Burnham Center for Chemical Genomics, 2011).)
